Measured values published in patent publication US20060024392A1, “Compositions and methods for enhancing the effectiveness of a chemotherapeutic agent” (priority 2004, published 2006).

Tests used:
HT29 colon cancer cells = assay: Sulforhodamine B (SRB) cell growth assay in HT29 colon cancer cells; assay type: cell-based
Experimental: HT-29, a cell line derived from colorectal adenocarcinoma (ATCC, HTB 38), grows in McCoy's 5A medium (Biowhittaker, Inc. Walkersville, Md.). NCM460, a cell line derived from a normal human colon (InCell Corp. San Antonio, Tex.), grows in M3 Base media (InCell Corp. San Antonio, Tex.).
Both cell lines are kept at 37° C. and 5% CO2 atmosphere. Both media are supplemented with 10% fetal bovine serum (FBS, Biowhittaker, Inc. Walkersville, Md.).
Cells are fixed in situ by the gentle addition of 50 μl of cold 50% (w/v) TCA (final concentration, 10% TCA) and incubated for 60 minutes at 4° C. The supernatant is discarded, and the plates are washed five times with tap water and air dried. Sulforhodamine B (SRB) solution (100 μl) at 0.4% (w/v) in 1% acetic acid is added to each well, and plates are incubated for 10 minutes at room temperature. After staining, unbound dye is removed by washing five times with 1% acetic acid and the plates are air dried. Bound stain is subsequently solubilized with 100 μl 10 mM trizma base for 5 minutes, and the absorbance at wavelength of 490 nm was spectrophotometrically measured using a microplate reader Elx800 (Bio-Tek instruments, Inc.).
Cells were seeded in 96-well cluster tissue culture plates (Costar), containing 100 μl complete growth medium per well at densities of 5,000 cells per well. Incubated at 37° C. in a humidified tissue culture incubator. After 24 Hour, 100 μl complete medium containing 5 half-log dilutions of the 5FU from 2*10^−4 to 2*10^−6 M was added into each well (final concentrations are from 10^−4 to 10^−6 M). Six replicates were used for each concentration. Media containing 0.125% DMSO was used as control. After 48 hours of incubation with 5FU in medium, cell proliferation was assessed using the SRB assay.
Percentage growth (Growth%) is calculated as: [(Ti−Tz)/(C−Tz)]×100 [absorbance measurements at time zero (Tz), control growth (C), and test growth in the presence of drug at the different concentration levels (Ti)].
Similar to the method used in testing GI50 of 5FU: HT29 was plated at 5000 cells per well. […] After 48 hour treatment, cell growth was assessed using SRB assay.
The protocol was the same as described above, except cells were exposed to 5FU at concentration ranging from 10^−4 to 10^−6 M with chokeberry ARE at concentration of 1.56, 5, 15.6, 50 μg monomeric anthocyanin/ml growth media.
The protocol was the similar to Experiment 1: Cells were exposed to half-log diluted SAC at concentration ranging from 3.2 to 1000 μM for 48 hour. Media containing 0.5% filtered water was used as control.
This experiment was to determine whether the antioxidant, SAC would enhance the effect of 5FU in HT29 cells. The protocol was the same as Experiment 3, except cells were exposed to 5FU at concentration ranging from 10^−4 to 10^−6 M with SAC at concentration of 10, 100, 1000 μM.

[1] = rats, 72 hours after 200 mg/kg 5FU i.p., AIN93 diet with or without 4 g anthocyanin/kg
[2] = 5FU 1.0E−4 M, 48 h, experiment 1
[3] = 5FU 1.0E−4 M, 48 h, experiment 2
[4] = 5FU 1.0E−4 M, 48 h, experiment 3
[5] = 5FU 1.0E−4 M, 48 h, experiment 4
[6] = 5FU 1.0E−4.5 M, 48 h, experiment 1
[7] = 5FU 1.0E−4.5 M, 48 h, experiment 2
[8] = 5FU 1.0E−4.5 M, 48 h, experiment 3
[9] = 5FU 1.0E−4.5 M, 48 h, experiment 4
[10] = 5FU 1.0E−5 M, 48 h, experiment 1
[11] = 5FU 1.0E−5 M, 48 h, experiment 2
[12] = 5FU 1.0E−5 M, 48 h, experiment 3
[13] = 5FU 1.0E−5 M, 48 h, experiment 4
[14] = 5FU 1.0E−5.5 M, 48 h, experiment 1
[15] = 5FU 1.0E−5.5 M, 48 h, experiment 2
[16] = 5FU 1.0E−5.5 M, 48 h, experiment 3
[17] = 5FU 1.0E−5.5 M, 48 h, experiment 4
[18] = 5FU 1.0E−6 M, 48 h, experiment 1
[19] = 5FU 1.0E−6 M, 48 h, experiment 2
[20] = 5FU 1.0E−6 M, 48 h, experiment 3
[21] = 5FU 1.0E−6 M, 48 h, experiment 4
[22] = Table 2: 5FU at 1.0E-4.368 M alone, 48 h
[23] = Table 6 (1): 5FU 1.00E−04 M, SAC 0
[24] = Table 6 (1): 5FU 1.00E−05 M, SAC 0
[25] = Table 6 (1): 5FU 1.00E−06 M, SAC 0
[26] = Table 6 (2): 5FU 1.00E−04 M, SAC 0
[27] = Table 6 (2): 5FU 1.00E−05 M, SAC 0
[28] = Table 6 (2): 5FU 1.00E−06 M, SAC 0

Description for male Sprague Dawley rats: The purpose of this experiment was to determine if the toxicity of 5FU would be decreased by feeding rats a diet supplemented with anthocyanin-rich extract (ARE) prior to and during 5FU treatment.
Rats were randomly allocated in two diet groups and maintained for two weeks on either AIN93 or AIN93 plus 4 g anthocyanin/kg (Table 7).
Seventy-two hours after the 5FU injections, rats were euthanized by CO2 inhalation. Blood was collected by heart puncture into heparinized tubes, the stomach and entire intestines were removed and stomach, duodenum, jejunum, ileum, cecum and colon sections were fixed in formalin for histopathological evaluation. In addition to the gastrointestinal tract, the following organs were also collected at necropsy for histopathological evaluation: heart, liver, kidney, spleen and bone marrow. These tissues were also fixed in formalin. All tissues were then routinely processed and stained with H&E for pathological evaluation.

Q: Which “clinical signs in preliminary experiment” value (male Sprague Dawley rats; 2 rats, 5FU 200 mg/kg) does the source give for `O=c1[nH]cc(F)c(=O)[nH]1` [5FU, 5-fluorouracil] here?
A: caused weight loss and diarrhea

Q: And the bone marrow histopathology (male Sprague Dawley rats; [1])?
A: panmyelophthisis of the bone marrow with congestion

Q: What about the kidney histopathology (male Sprague Dawley rats; [1]) of the same molecule?
A: acute toxic nephropathy of the proximal convoluted tubules was present in all 5FU treated animals in mild to moderate severity

Q: What about the small intestine histopathology (male Sprague Dawley rats; [1]) of the same molecule?
A: intestinal villi were moderately to severely denuded

Q: And the “overall histopathological changes in tissues” value (male Sprague Dawley rats; rats, 5FU 200 mg/kg i.p. or AIN93 plus 4 g anthocyanin/kg diet with saline)?
A: significant acute toxicological changes

Q: What about the Growth % (HT29 colon cancer cells; [2]) of the same molecule?
A: 48.88%

Q: What about the OD (HT29 colon cancer cells; [2]) of the same molecule?
A: 0.30

Q: And the Growth % (HT29 colon cancer cells; [3])?
A: 34.83%

Q: And the OD (HT29 colon cancer cells; [3])?
A: 0.25

Q: What about the Growth % (HT29 colon cancer cells; [4]) of the same molecule?
A: 37.16%

Q: And the OD (HT29 colon cancer cells; [4])?
A: 0.26

Q: What about the Growth % (HT29 colon cancer cells; [5]) of the same molecule?
A: 42.91%

Q: And the OD (HT29 colon cancer cells; [5])?
A: 0.25

Q: What about the Growth % (HT29 colon cancer cells; [6]) of the same molecule?
A: 54.63%

Q: What about the OD (HT29 colon cancer cells; [6]) of the same molecule?
A: 0.32

Q: What about the Growth % (HT29 colon cancer cells; [7]) of the same molecule?
A: 44.48%

Q: And the OD (HT29 colon cancer cells; [7])?
A: 0.27

Q: What about the Growth % (HT29 colon cancer cells; [8]) of the same molecule?
A: 43.58%

Q: What about the OD (HT29 colon cancer cells; [8]) of the same molecule?
A: 0.27

Q: And the Growth % (HT29 colon cancer cells; [9])?
A: 53.85%

Q: And the OD (HT29 colon cancer cells; [9])?
A: 0.27

Q: What about the Growth % (HT29 colon cancer cells; [10]) of the same molecule?
A: 60.38%

Q: And the OD (HT29 colon cancer cells; [10])?
A: 0.33

Q: What about the Growth % (HT29 colon cancer cells; [11]) of the same molecule?
A: 57.93%

Q: What about the OD (HT29 colon cancer cells; [11]) of the same molecule?
A: 0.31

Q: What about the Growth % (HT29 colon cancer cells; [12]) of the same molecule?
A: 56.76%

Q: What about the OD (HT29 colon cancer cells; [12]) of the same molecule?
A: 0.31

Q: What about the Growth % (HT29 colon cancer cells; [13]) of the same molecule?
A: 70.85%

Q: And the OD (HT29 colon cancer cells; [13])?
A: 0.32

Q: And the Growth % (HT29 colon cancer cells; [14])?
A: 82.11%

Q: What about the OD (HT29 colon cancer cells; [14]) of the same molecule?
A: 0.40

Q: What about the Growth % (HT29 colon cancer cells; [15]) of the same molecule?
A: 77.24%

Q: And the OD (HT29 colon cancer cells; [15])?
A: 0.37

Q: What about the Growth % (HT29 colon cancer cells; [16]) of the same molecule?
A: 76.69%

Q: And the OD (HT29 colon cancer cells; [16])?
A: 0.37

Q: And the Growth % (HT29 colon cancer cells; [17])?
A: 87.85%

Q: And the OD (HT29 colon cancer cells; [17])?
A: 0.36

Q: What about the Growth % (HT29 colon cancer cells; [18]) of the same molecule?
A: 94.25%

Q: And the OD (HT29 colon cancer cells; [18])?
A: 0.44

Q: What about the Growth % (HT29 colon cancer cells; [19]) of the same molecule?
A: 94.83%

Q: And the OD (HT29 colon cancer cells; [19])?
A: 0.42

Q: What about the Growth % (HT29 colon cancer cells; [20]) of the same molecule?
A: 88.51%

Q: What about the OD (HT29 colon cancer cells; [20]) of the same molecule?
A: 0.41

Q: What about the Growth % (HT29 colon cancer cells; [21]) of the same molecule?
A: 96.36%

Q: What about the OD (HT29 colon cancer cells; [21]) of the same molecule?
A: 0.38

Q: And the growth inhibition (HT29 colon cancer cells; 5FU alone at GI50 concentration (FIG. 1))?
A: 65%

Q: What about the Growth % (HT29 colon cancer cells; [22]) of the same molecule?
A: 35.02%

Q: What about the OD (HT29 colon cancer cells; [22]) of the same molecule?
A: 0.22

Q: And the Growth % (HT29 colon cancer cells; Table 3: 5FU 1.0E−4 M, ARE 0)?
A: 29.77%

Q: And the OD (HT29 colon cancer cells; Table 3: 5FU 1.0E−4 M, ARE 0)?
A: 0.20

Q: And the Growth % (HT29 colon cancer cells; Table 3: 5FU 1.0E−5 M, ARE 0)?
A: 49.30%

Q: And the OD (HT29 colon cancer cells; Table 3: 5FU 1.0E−5 M, ARE 0)?
A: 0.24

Q: And the Growth % (HT29 colon cancer cells; Table 3: 5FU 1.0E−6 M, ARE 0)?
A: 82.33%

Q: What about the OD (HT29 colon cancer cells; Table 3: 5FU 1.0E−6 M, ARE 0) of the same molecule?
A: 0.31

Q: And the Growth % (HT29 colon cancer cells; [23])?
A: 27.44%

Q: And the OD (HT29 colon cancer cells; [23])?
A: 0.175

Q: And the Growth % (HT29 colon cancer cells; [24])?
A: 52.09%

Q: What about the OD (HT29 colon cancer cells; [24]) of the same molecule?
A: 0.228

Q: And the Growth % (HT29 colon cancer cells; [25])?
A: 91.63%

Q: What about the OD (HT29 colon cancer cells; [25]) of the same molecule?
A: 0.313

Q: What about the Growth % (HT29 colon cancer cells; [26]) of the same molecule?
A: 26.16%

Q: And the OD (HT29 colon cancer cells; [26])?
A: 0.178

Q: What about the Growth % (HT29 colon cancer cells; [27]) of the same molecule?
A: 43.46%

Q: What about the OD (HT29 colon cancer cells; [27]) of the same molecule?
A: 0.219

Q: What about the Growth % (HT29 colon cancer cells; [28]) of the same molecule?
A: 79.32%

Q: What about the OD (HT29 colon cancer cells; [28]) of the same molecule?
A: 0.304

Q: What about the “growth of cells, % of control” value (HT29 colon cancer cells; highest concentration of 5FU alone) of the same molecule?
A: 30 % of control

Q: And the “growth of cells, % of control” value (HT29 colon cancer cells; intermediate concentration of 5FU alone)?
A: 50 % of control

Q: And the “growth of cells, % of control” value (HT29 colon cancer cells; lowest concentration of 5FU (10^−6 M) alone)?
A: 80 % of control
